Test system: not listed separately
Assay: Cytotoxicity in HepG2.117 cells (ATPlite Luminescence Assay)
Format: cell-based
Settings: human, incubated for 3 days, cell viability, mean value, read-out: TOX-HepG2.117 CC50 (μM, mean value)
Procedure: Cytotoxicity of the compounds was tested using HepG2 or HepG2.117 cells, incubated for 3 days in the presence of compounds. The viability of the cells was assessed using the PERKIN ELMER ATPlite Luminescence Assay System.”

Row | SMILES | CC50 at 3 days [µM]
1 | C[C@@H]1Cc2nn3c(c2CN1C(=O)c1ccc(Cl)c(Cl)c1)C(F)(F)CC[C@H](CO)C3 (single isomer, unassigned) [Example C13, (3,4-Dichlorophenyl)[(3R,8*S)-11,11-difluoro-8-(hydroxymethyl)-3-methyl-1,3,4,7,8,9,10,11-octahydro-2H-pyrido[4′,3′:3,4]pyrazolo[1,5-a]azepin-2-yl]methanone] | 33.6

Test system: HBV
Assay: HBV replication inhibition assay (BDNA assay) in HepG2.2.15 cells
Format: cell-based, Hepatitis B virus
Settings: 6 days, encapsidated HBV DNA in supernatant
Outline: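 HepG2.2.15 cells were dosed with serially diluted compound (0.5% DMSO), with compound and medium renewed at day 3. Day-6 supernatants were DNase-treated and proteinase K-lysed, and encapsidated HBV DNA was quantified by branched-DNA assay. Percent inhibition was set against DMSO controls and EC50 obtained by nonlinear fit.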

Row | SMILES | EC50 [nM]
2 | O=C(Nc1ccnc(C(F)F)c1F)N1CCc2nn3c(c2C1)C(F)(F)CCC(O)(COCC(F)F)C3 (single isomer, unassigned) [Example 36, (S*)-8-((2,2-Difluoroethoxy)methyl)-N-(2-(difluoromethyl)-3-fluoropyridin-4-yl)-11,11-difluoro-8-hydroxy-3,4,8,9,10,11-hexahydro-1H-pyrido[4′,3′:3,4]pyrazolo[1,5-a]azepine-2(7H)-carboxamide] | 39
3 | O=C(Nc1ccnc(Br)c1F)N1CCc2nn3c(c2C1)C(F)(F)CCC(CO)C3 (single isomer, unassigned) [Example 22, (S*)—N-(2-Bromo-3-fluoropyridin-4-yl)-11,11-difluoro-8-(hydroxymethyl)-3,4,8,9,10,11-hexahydro-1H-pyrido[4′,3′:3,4]pyrazolo[1,5-a]azepine-2(7H)-carboxamide] | 4
4 | O=C(Nc1ccnc(Br)c1F)N1CCc2nn3c(c2C1)C(F)(F)CCC(CO)C3 (single isomer, unassigned) [Example 26, (R*)—N-(2-Bromo-3-fluoropyridin-4-yl)-11,11-difluoro-8-(hydroxymethyl)-3,4,8,9,10,11-hexahydro-1H-pyrido[4′,3′:3,4]pyrazolo[1,5-a]azepine-2(7H)-carboxamide] | 25
5 | C[C@@H]1Cc2nn3c(c2CN1C(=O)Nc1ccc(F)c(C#N)c1)C(F)(F)CC(O)(CF)CC3 (single isomer, unassigned) [Example 130, (3R,9S*)—N-(3-Cyano-4-fluorophenyl)-11,11-difluoro-9-(fluoromethyl)-9-hydroxy-3-methyl-3,4,8,9,10,11-hexahydro-1H-pyrido[4′,3′:3,4]pyrazolo[1,5-a]azepine-2(7H)-carboxamide] | 2
6 | COC(=O)NCC1CCC(F)(F)c2c3c(nn2C1)C[C@@H](C)N(C(=O)Nc1ccnc(Br)c1F)C3 (single isomer, unassigned) [Example 109, Methyl (((3R,8S*)-2-((2-bromo-3-fluoropyridin-4-yl)carbamoyl)-11,11-difluoro-3-methyl-2,3,4,7,8,9,10,11-octahydro-1H-pyrido[4′,3′:3,4]pyrazolo[1,5-a]azepin-8-yl)methyl)carbamate] | 32
7 | C#CC1(O)CCC(F)(F)c2c3c(nn2C1)CCN(C(=O)Nc1ccc(F)c(C#N)c1)C3 (single isomer, unassigned) [Example 59, (R*)—N-(3-Cyano-4-fluorophenyl)-8-ethynyl-11,11-difluoro-8-hydroxy-3,4,8,9,10,11-hexahydro-1H-pyrido[4′,3′:3,4]pyrazolo[1,5-a]azepine-2(7H)-carboxamide] | 5
8 | C[C@@H]1Cc2nn3c(c2CN1C(=O)Nc1ccc(F)c(C#N)c1)C(F)(F)CCC(O)(COCC(F)F)C3 (single isomer, unassigned) [Example 93, (3R,8R*)—N-(3-Cyano-4-fluorophenyl)-8-((2,2-difluoroethoxy)methyl)-11,11-difluoro-8-hydroxy-3-methyl-3,4,89,10,11-hexahydro-1H-pyrido[4′,3′:3,4]pyrazolo[1,5-a]azepine-2(7H)-carboxamide] | 45
9 | C#CC1(O)CCC(F)(F)c2c3c(nn2C1)C[C@@H](C)N(C(=O)Nc1ccc(F)c(C#N)c1)C3 (single isomer, unassigned) [Example 98, (3R,8S*)—N-(3-Cyano-4-fluorophenyl)-8-ethynyl-11,11-difluoro-8-hydroxy-3-methyl-3,4,8,9,10,11-hexahydro-1H-pyrido[4′,3′:3,4]pyrazolo[1,5-a]azepine-2(7H)-carboxamide] | 51
10 | O=C(Nc1ccc(F)c(C(F)(F)F)c1)N1CCc2nn3c(c2C1)C(F)(F)CCC(COCC(F)F)C3 (single isomer, unassigned) [Example 30, (R*)-8-((2,2-Difluoroethoxy)methyl)-11,11-difluoro-N-(4-fluoro-3-(trifluoromethyl)phenyl)-3,4,8,9,10,11-hexahydro-1H-pyrido[4′,3′:3,4]pyrazolo[1,5-a]azepine-2(7H)-carboxamide] | 267
11 | C[C@@H]1Cc2nn3c(c2CN1C(=O)Nc1ccnc(C(F)F)c1F)C(F)(F)CCC(O)(CF)C3 (single isomer, unassigned) [Example 85, (3R,8R*)—N-(2-(Difluoromethyl)-3-fluoropyridin-4-yl)-11,11-difluoro-8-(fluoromethyl)-8-hydroxy-3-methyl-3,4,8,9,10,11-hexahydro-1H-pyrido[4′,3′:3,4]pyrazolo[1,5-a]azepine-2(7H)-carboxamide] | 45
12 | C[C@@H]1Cc2nn3c(c2CN1C(=O)Nc1ccnc(C(F)F)c1F)C(F)(F)CC(O)CC3 (single isomer, unassigned) [Example 121, (3R,9S*)—N-(2-(Difluoromethyl)-3-fluoropyridin-4-yl)-11,11-difluoro-9-hydroxy-3-methyl-3,4,8,9,10,11-hexahydro-1H-pyrido[4′,3′:3,4]pyrazolo[1,5-a]azepine-2(7H)-carboxamide] | 8
13 | O=C(Nc1ccnc(C(F)F)c1F)N1CCc2nn3c(c2C1)C(F)(F)CC(O)CC3 (single isomer, unassigned) [Example 139, (R*)—N-(2-(Difluoromethyl)-3-fluoropyridin-4-yl)-11,11-difluoro-9-hydroxy-3,4,8,9,10,11-hexahydro-1H-pyrido[4′,3′:3,4]pyrazolo[1,5-a]azepine-2(7H)-carboxamide] | 21
14 | COC(=O)NCC1CCC(F)(F)c2c3c(nn2C1)C[C@@H](C)N(C(=O)Nc1ccnc(C(F)F)c1F)C3 (single isomer, unassigned) [Example 110, Methyl (((3R,8S*)-2-((2-(difluoromethyl)-3-fluoropyridin-4-yl)carbamoyl)-11,11-difluoro-3-methyl-2,3,4,7,8,9,10,11-octahydro-1H-pyrido[4′,3′:3,4]pyrazolo[1,5-a]azepin-8-yl)methyl)carbamate] | 18
15 | C#CC1(O)CCC(F)(F)c2c3c(nn2C1)CCN(C(=O)Nc1ccnc(C(F)F)c1F)C3 (single isomer, unassigned) [Example 66, (S*)—N-(2-(Difluoromethyl)-3-fluoropyridin-4-yl)-8-ethynyl-11,11-difluoro-8-hydroxy-3,4,8,9,10,11-hexahydro-1H-pyrido[4′,3′:3,4]pyrazolo[1,5-a]azepine-2(7H)-carboxamide] | 149
16 | C[C@@H]1Cc2nn3c(c2CN1C(=O)Nc1ccc(F)c(C(F)(F)F)c1)C(F)(F)CCC(CO)C3 (single isomer, unassigned) [Example 76, (3R,8S*)-11,11-Difluoro-N-(4-fluoro-3-(trifluoromethyl)phenyl)-8-(hydroxymethyl)-3-methyl-3,4,8,9,10,11-hexahydro-1H-pyrido[4′,3′:3,4]pyrazolo[1,5-a]azepine-2(7H)-carboxamide] | 5
17 | N#Cc1cc(NC(=O)N2CCc3nn4c(c3C2)C(F)(F)CC(CO)CC4)ccc1F (single isomer, unassigned) [Example 136, (R*)—N-(3-Cyano-4-fluorophenyl)-11,11-difluoro-9-(hydroxymethyl) -3,4,8,9,10,11-hexahydro-1H-pyrido[4′,3′:3,4]pyrazolo[1,5-a]azepine-2(7H)-carboxamide] | 5
18 | O=C(Nc1ccc(F)c(C(F)(F)F)c1)N1CCc2nn3c(c2C1)C(F)(F)CCC(COCC(F)F)C3 (single isomer, unassigned) [Example 28, (S*)-8-((2,2-Difluoroethoxy)methyl)-11,11-difluoro-N-(4-fluoro-3-(trifluoromethyl)phenyl)-3,4,8,9,10,11-hexahydro-1H-pyrido[4′,3′:3,4]pyrazolo[1,5-a]azepine-2(7H)-carboxamide] | 22
19 | C[C@@H]1Cc2nn3c(c2CN1C(=O)Nc1ccc(F)c(C#N)c1)C(F)(F)CCC(O)(COCC(F)F)C3 (single isomer, unassigned) [Example 94, (3R,8S*)—N-(3-Cyano-4-fluorophenyl)-8-((2,2-difluoroethoxy)methyl)-11,11-difluoro-8-hydroxy-3-methyl-3,4,8,9,10,11-hexahydro-1H-pyrido[4′,3′:3,4]pyrazolo[1,5-a]azepine-2(7H)-carboxamide] | 15
20 | O=C(Nc1ccnc(Br)c1F)N1CCc2nn3c(c2C1)C(F)(F)CCC(F)(CO)C3 (single isomer, unassigned) [Example 47, (S*)—N-(2-Bromo-3-fluoropyridin-4-yl)-8,11,11-trifluoro-8-(hydroxymethyl)-3,4,8,9,10,11-hexahydro-1H-pyrido[4′,3′:3,4]pyrazolo[1,5-a]azepine-2(7H)-carboxamide] | 156

Test system: HBV
Assay: Anti-HBV activity in HepG2.117 cell line (intracellular HBV DNA, real-time PCR)
Format: cell-based
Settings: Hepatitis B virus, 72 h; HepG2.117 cells, 3 days of treatment, intracellular HBV DNA, mean value; read-out: HBV-AVE-HepG2.117 EC50 (μM, mean value)
Procedure: The anti HBV activity was measured using the HepG2.117 cell line, a stable, inducibly HBV producing cell line, which replicates HBV in the absence of doxicycline (Tet-off system). The HepG2 cell line is available from ATCC® under number HB-8065. Transfection of the HepG2 cell line can be as described in Sun and Nassal 2006 Journal of Hepatology 45 (2006) 636-645 “Stable HepG2- and Huh7-based human hepatoma cell lines for efficient regulated expression of infectious hepatitis B virus”.
For the antiviral assay, HBV replication was induced, followed by a treatment with serially diluted compound in 96-well plates. After 3 days of treatment, the antiviral activity was determined by quantification of intracellular HBV DNA using real-time PCR and an HBV specific primer set and probe.

Row | SMILES | EC50 [µM]
21 | C[C@@H]1Cc2nn3c(c2CN1C(=O)c1ccc(Cl)c(Cl)c1)C(F)(F)CC[C@H](CO)C3 (single isomer, unassigned) [Example C13, (3,4-Dichlorophenyl)[(3R,8*S)-11,11-difluoro-8-(hydroxymethyl)-3-methyl-1,3,4,7,8,9,10,11-octahydro-2H-pyrido[4′,3′:3,4]pyrazolo[1,5-a]azepin-2-yl]methanone] | < 0.195

— patent publication US20220323455A1, “FUSED HETEROCYCLIC DERIVATIVES AS ANTIVIRAL AGENTS” (priority 2019, published 2022)
